# Source: patent US20230126204A1, “[1,3]DIAZINO[5,4-d]PYRIMIDINES AS HER2 INHIBITORS” (Boehringer Ingelheim International GmbH, priority 2020, published 2023)
# Read-outs that look alike come from different tables or passages of the source.
# How the values were obtained:
# Assay type in all cases: cell-based
# [1] = system: Ba/F3 cells HER2 WT; test: Ba/F3 proliferation assay HER2 WT; conditions: Mus musculus, BaF3, 72 h, CellTiter-Glo
# Experimental: (§1) Ba/F3 cell model generation and proliferation assays
# (§2) Plasmids containing HER2 mutants and EGFR WT were obtained from GeneScript. To generate EGFR/HER2-dependent Ba/F3 models, Ba/F3 cells were transduced with retroviruses containing vectors that harbor EGFR WT, HER2 WT or HER2 mutants (YVMA). Platinum-E cells (Cell Biolabs) were used for retrovirus packaging. Retrovirus was added to Ba/F3 cells. To ensure infection, 4 μg/mL polybrene was added and cells were spinfected. Infection efficiency was confirmed by measuring GFP-positive cells using a cell analyzer. Cells with an infection efficiency of 10% to 20% were further cultivated and puromycin selection with 1 μg/mL was initiated. As a control, parental Ba/F3 cells were used to assess the selection status. Selection was considered successful when parental Ba/F3 cells cultures died. To evaluate the transforming potential of HER2 mutations, the growth medium was no longer supplemented with IL-3. Ba/F3 cells harboring the empty vector were used as a control. A switch from IL-3 to EGF was performed for Ba/F3 cells with the EGFR WT known for its dependency on EGF ligand. Approximately ten days before conducting the experiments, puromycin was left out. For proliferation assays (data in table 12 and 14), Ba/F3 cells were seeded into 96-well plates at 5×10^3 cells/100 μL in growth media. Compounds were added by using a HP D3000 Digital Dispenser. All treatments were performed in technical triplicates. Treated cells were incubated for 72 h at 37° C. with 5% CO2. CellTiter-Glo® Luminescent Cell Viability Assay (Promega) was performed and chemoluminescence was measured by using the multilabel Plate Reader VICTOR X4. The raw data were imported into and analyzed with the Boehringer Ingelheim proprietary software MegaLab (curve fitting based on the program PRISM, GraphPad Inc.).
# [2] = system: NCI-H2170 (HER2 wild type) cells; test: Tumor cell proliferation assay NCI-H2170 (HER2 wild type); conditions: Homo sapiens, 72 h, CellTiter-Glo, read-out: GI50 NCI H-2170 HER2 wt amp.
# Experimental: (§3) For proliferation assays, NCI-H2170 (HER2 wild type), NCI-H2170 HER2 YVMA and EGFR WT dependent A431 cells were used. NCI-H2170 HER2 YVMA or NCI-H2170 cells were seeded into 96-well plates at 750 cells/60 μL in growth media (RPMI ATCC+10% FBS, +Penicillin/Streptomycin). […] Compounds were added by using a HP D3000 Digital Dispenser one day after plating the cells. All treatments were performed in technical triplicates. Treated cells were incubated for 72 h at 37° C. with 5% CO2. CellTiter-Glo® Luminescent Cell Viability Assay (Promega) was performed and chemoluminescence was measured by using the multilabel Plate Reader VICTOR X4. The raw data were imported into and analyzed with the Boehringer Ingelheim proprietary software MegaLab (curve fitting based on the program PRISM, GraphPad Inc.).
# [3] = target: T1, HER2 YVMA (Homo sapiens, UniProt P04626, INS775YVMA); test: pHER2 (ERBB2) YVMA assay (AlphaScreen Surefire, HEK cells); conditions: HEK cells expressing HER2 YVMA, phosphorylation at Tyr1221/1222, 4 h
# T1 construct: expressed in transfected cells; host or cells: human HEK cells, retroviral transduction, puromycin selection, doxycycline-inducible expression
# T1 sequence (P04626 with tags, fused parts or gaps INS775YVMA): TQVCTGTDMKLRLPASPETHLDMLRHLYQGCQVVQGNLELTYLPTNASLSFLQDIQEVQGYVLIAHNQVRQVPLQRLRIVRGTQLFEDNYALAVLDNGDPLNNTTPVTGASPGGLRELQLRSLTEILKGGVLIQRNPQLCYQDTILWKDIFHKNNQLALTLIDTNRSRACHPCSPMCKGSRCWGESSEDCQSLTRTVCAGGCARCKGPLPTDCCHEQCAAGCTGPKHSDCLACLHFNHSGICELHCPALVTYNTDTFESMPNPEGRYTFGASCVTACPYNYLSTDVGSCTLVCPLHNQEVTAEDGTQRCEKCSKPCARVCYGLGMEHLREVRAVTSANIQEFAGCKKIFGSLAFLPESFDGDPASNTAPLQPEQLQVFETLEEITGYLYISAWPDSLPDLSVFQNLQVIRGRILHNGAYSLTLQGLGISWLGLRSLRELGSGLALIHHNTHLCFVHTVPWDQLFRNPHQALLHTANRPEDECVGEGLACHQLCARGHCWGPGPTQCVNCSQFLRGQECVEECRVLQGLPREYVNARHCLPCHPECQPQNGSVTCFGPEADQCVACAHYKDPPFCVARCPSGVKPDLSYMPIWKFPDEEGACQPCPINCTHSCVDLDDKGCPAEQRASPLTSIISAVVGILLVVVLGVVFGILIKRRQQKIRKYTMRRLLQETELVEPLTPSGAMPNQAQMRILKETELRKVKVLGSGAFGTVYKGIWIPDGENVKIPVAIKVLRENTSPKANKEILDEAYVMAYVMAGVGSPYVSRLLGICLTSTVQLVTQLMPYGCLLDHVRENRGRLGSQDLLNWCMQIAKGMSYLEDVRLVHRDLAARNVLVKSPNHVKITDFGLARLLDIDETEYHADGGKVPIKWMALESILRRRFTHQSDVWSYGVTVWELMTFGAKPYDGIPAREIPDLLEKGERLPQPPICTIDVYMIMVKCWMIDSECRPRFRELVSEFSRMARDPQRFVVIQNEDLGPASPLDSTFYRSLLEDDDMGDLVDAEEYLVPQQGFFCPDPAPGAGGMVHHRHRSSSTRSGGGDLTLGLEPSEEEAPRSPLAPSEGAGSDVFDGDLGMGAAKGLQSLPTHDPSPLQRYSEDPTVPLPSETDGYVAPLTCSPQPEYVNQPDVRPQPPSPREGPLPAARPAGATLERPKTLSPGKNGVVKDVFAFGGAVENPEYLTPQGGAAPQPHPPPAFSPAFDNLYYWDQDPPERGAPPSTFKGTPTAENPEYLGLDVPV
# Experimental: (§4) For the assay, HEK HER2 YVMA cells were seeded in MEM medium with 10% FBS. 4 hours prior to compound addition, HER2 YVMA expression was induced using 1 μg/ml Doxycycline. […] Subsequently, 60.000 cells/well in 60 μL were added. Cells were incubated with compounds for 4 h at 37° C. […] The mixture was incubated at a temperature of 20-25° C. with shaking (700 rpm) for 20 min. After centrifugation, 4 μL of the lysate were transferred to Proxiplates. […] Plates were shaken for 1 min (1400 rpm) and incubated for 2 h at a temperature of 20-25° C. in the dark.
# The results of the assay are provided as IC50 values.
# [4] = target: T2, EGFR wild type (WT) (Homo sapiens, UniProt P00533); test: pEGFR assay (AlphaScreen Surefire, HEK cells); conditions: HEK cells expressing EGFR WT, phosphorylation at Tyr1068, 4 h
# T2 construct: expressed in transfected cells; host or cells: human HEK cells (ATCC CRL-1573), retroviral transduction, puromycin selection
# T2 sequence (P00533 25-1210): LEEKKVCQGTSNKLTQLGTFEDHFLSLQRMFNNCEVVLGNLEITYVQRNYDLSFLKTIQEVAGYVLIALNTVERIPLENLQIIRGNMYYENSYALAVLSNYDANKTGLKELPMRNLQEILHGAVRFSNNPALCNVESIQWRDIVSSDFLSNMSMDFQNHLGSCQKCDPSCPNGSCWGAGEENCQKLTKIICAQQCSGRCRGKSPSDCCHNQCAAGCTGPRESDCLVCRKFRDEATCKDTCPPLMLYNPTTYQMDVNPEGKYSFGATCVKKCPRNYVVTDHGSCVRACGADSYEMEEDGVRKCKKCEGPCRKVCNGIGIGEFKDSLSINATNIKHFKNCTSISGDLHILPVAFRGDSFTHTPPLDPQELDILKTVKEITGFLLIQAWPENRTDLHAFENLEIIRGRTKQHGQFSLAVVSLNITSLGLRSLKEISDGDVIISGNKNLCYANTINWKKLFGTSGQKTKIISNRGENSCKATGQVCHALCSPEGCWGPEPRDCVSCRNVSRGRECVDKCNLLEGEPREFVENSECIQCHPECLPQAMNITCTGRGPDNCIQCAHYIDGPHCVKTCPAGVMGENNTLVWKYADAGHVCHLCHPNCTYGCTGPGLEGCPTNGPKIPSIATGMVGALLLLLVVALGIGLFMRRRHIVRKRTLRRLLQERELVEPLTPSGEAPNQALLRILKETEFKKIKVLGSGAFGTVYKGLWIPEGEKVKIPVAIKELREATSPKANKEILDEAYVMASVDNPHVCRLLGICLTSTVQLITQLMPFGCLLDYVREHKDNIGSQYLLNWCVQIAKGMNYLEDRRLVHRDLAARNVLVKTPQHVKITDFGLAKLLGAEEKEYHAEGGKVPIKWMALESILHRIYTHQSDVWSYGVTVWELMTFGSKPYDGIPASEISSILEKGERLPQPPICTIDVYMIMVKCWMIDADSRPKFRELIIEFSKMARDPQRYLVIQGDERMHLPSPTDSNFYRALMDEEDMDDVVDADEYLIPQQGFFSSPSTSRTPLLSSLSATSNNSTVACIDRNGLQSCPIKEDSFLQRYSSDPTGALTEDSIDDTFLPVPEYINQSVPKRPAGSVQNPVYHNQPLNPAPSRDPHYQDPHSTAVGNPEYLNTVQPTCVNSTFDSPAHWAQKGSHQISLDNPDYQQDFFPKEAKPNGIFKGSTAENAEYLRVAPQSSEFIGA
# Experimental: This assay quantifies the phosphorylation of EGFR at Tyr1068 and was used to measure the inhibitory effect of compounds on the transgenic EGFR wild type (WT) protein expressed in HEK cells.
# as §4, with “Transduced cells were selected using puromycin. p-EGFR Tyr1068 was determined using the AlphaScreen Surefire pEGF Receptor (Tyr1068) Assay (PerkinElmer, TGRERS). For” for “For”, “EGFR WT” for “HER2 YVMA”, “FBS.” for “FBS. 4 hours prior to compound addition, HER2 YVMA expression was induced using 1 μg/ml Doxycycline.”
# This cellular phospho-EGFR (pEGFR) compound dose-response assay quantifies the phosphorylation of EGFR at Tyr1068 in HEK cells expressing EGFR WT. The results of the assay are provided as IC50 values.
# [5] = system: Ba/F3 cells HER2 mutants (YVMA); test: Ba/F3 proliferation assay HER2 YVMA; conditions: Mus musculus, BaF3, 72 h, CellTiter-Glo
# Experimental: as §1, §2
# [6] = system: Ba/F3 cells EGFR WT; test: Ba/F3 proliferation assay EGFR WT (EGF dependent); conditions: Mus musculus, CellTiter-Glo, read-out: GI50 BAF3 EGF dep.
# Experimental: as §1, §2
# [7] = system: EGFR WT dependent A431 cells; test: Tumor cell proliferation assay A431 (EGFR WT dependent); conditions: Homo sapiens, A-431, 72 h, CellTiter-Glo, read-out: GI50 A431 EGFR wt amp.
# Experimental: as §3
# [8] = system: NCI-H2170 HER2 YVMA cells; test: Tumor cell proliferation assay NCI-H2170 HER2 YVMA; conditions: Homo sapiens, 72 h, CellTiter-Glo, read-out: GI50 NCI H-2170 HER2 YVMA
# From the text: HER2 YVMA tumor cell line model generation and proliferation assays
# Homology-directed genome engineering was employed to insert a 12 nucleotide sequence encoding YVMA into Exon 20 of the genomic HER2 locus in NCI-H2170 cells. […] The DNA template containing the HER2 exon 20 YVMA insertion variant was obtained from GenScript. PCR followed by Sanger sequencing was used to confirm the presence of the 12-nucleotide insertion in HER2 Exon 20 resulting in the YVMA amino acid duplication.
# as §3
# [9] = BaF3, EGF instead of IL-3, 72 h
# [10] = BaF3, prior art compounds, EGF instead of IL-3, 72 h
SMILES,GI50 ([1]; prior art compounds) [nM],GI50 ([2]; prior art compounds) [nM],IC50 [3] [nM],IC50 [4] [nM],GI50 [5] [nM],GI50 [1] [nM],"GI50 [6, 9] [nM]",GI50 [7] [nM],GI50 [2] [nM],GI50 [8] [nM],GI50 ([5]; prior art compounds) [nM],GI50 ([7]; prior art compounds) [nM],"GI50 [6, 10] [nM]",GI50 ([8]; prior art compounds) [nM]
"Cc1cc(Nc2ncnc3ccc(NC4=NC(C)(C)CO4)cc23)ccc1Oc1ccn2ncnc2c1 [tucatinib, reference compound]",10,58,–,–,–,–,–,–,–,–,–,–,–,–
C=CC(=O)N1CCN(c2ncc3ncnc(Nc4ccc(Oc5ccc6c(c5)ncn6C)c(C)c4)c3n2)CC1 [Compound I-1],–,–,10,265,18,1,2400,> 5000,16,82,–,–,–,–
C=CC(=O)N1CCN(c2ncc3ncnc(Nc4ccc(Oc5ccc6c(c5)ncn6C)c(Br)c4)c3n2)CC1 [Compound I-5],–,–,15,232,20,1,572,2880,16,76,–,–,–,–
"C=CC(=O)Nc1ccc2ncnc(Nc3ccc(Oc4ccc5c(c4)ncn5C)c(C)c3)c2c1 [WO 2007/059257 Ex.185, reference compound]",–,–,–,–,–,–,–,–,–,–,60,> 5000,–,–
C=CC(=O)N1CCN(c2ncc3ncnc(Nc4cc(Br)c(Oc5ccc6c(c5)ncn6C)cc4Cl)c3n2)CC1 [Compound I-10],–,–,80,1770,64,8,1630,> 5000,52,216,–,–,–,–
"C=CC(=O)Nc1ccc2ncnc(Nc3ccc(OCc4cccc(F)c4)c(Cl)c3)c2c1 [allitinib, reference compound]",–,36,–,–,–,–,–,–,–,–,17,–,31,–
C=CC(=O)N1CCN(c2ncc3ncnc(Nc4ccc(Oc5ccc6c(c5)ncn6C)c(OC)c4)c3n2)CC1 [Compound I-3],–,–,17,1170,12,1,2800,> 5000,18,74,–,–,–,–
"CCOc1cc2ncc(C#N)c(Nc3ccc(OCc4ccccn4)c(Cl)c3)c2cc1NC(=O)/C=C/CN(C)C [neratinib, reference compound]",–,3,–,–,–,–,–,–,–,–,5,55,14,37
C=CC(=O)N1CCN(c2ncc3ncnc(Nc4ccc(Oc5ccc6c(c5)ncn6C)c(F)c4)c3n2)CC1 [Compound I-6],–,–,19,1110,27,3,1840,2640,26,146,–,–,–,–
"C=CC(=O)Nc1cccc(-n2c(=O)c(Oc3ccc(F)cc3F)cc3cnc(Nc4cnn(C)c4)nc32)c1 [WO 2019/046775 Comp.2, reference compound]",3,22,–,–,–,–,–,–,–,–,14,16,13,34
"C=CC(=O)N1CCC(Oc2cc3c(Nc4ccc(Cl)c(Cl)c4F)ncnc3cc2OC)CC1 [poziotinib, reference compound]",1,1,–,–,–,–,–,–,–,–,2,1,1,5
C=CC(=O)N1CCN(c2ncc3ncnc(Nc4ccc(Oc5ccc6c(c5)ncn6C)c(Cl)c4)c3n2)CC1 [Compound I-4],–,–,10,221,17,2,904,> 5000,11,81,–,–,–,–
C#Cc1cc(Nc2ncnc3cnc(N4CCN(C(=O)C=C)CC4)nc23)ccc1Oc1ccc2c(c1)ncn2C [Compound I-2],–,–,10,380,9,1,1380,4660,9,50,–,–,–,–
C=CC(=O)N1CCN(c2ncc3ncnc(Nc4cc(F)c(Oc5ccc6c(c5)ncn6C)c(Cl)c4)c3n2)CC1 [Compound I-8],–,–,22,355,31,3,1040,3930,21,172,–,–,–,–
C=CC(=O)N1CCN(c2ncc3ncnc(Nc4cc(Br)c(Oc5ccc6c(c5)ncn6C)c(Br)c4)c3n2)CC1 [Compound I-9],–,–,34,485,23,5,1120,2510,46,203,–,–,–,–
C=CC(=O)N1CCN(c2ncc3ncnc(Nc4ccc(Oc5ccc6c(c5)ncn6C)cc4F)c3n2)CC1 [Compound I-12],–,–,27,873,48,7,1180,4810,45,167,–,–,–,–
C=CC(=O)N1CCN(c2ncc3ncnc(Nc4cc(F)c(Oc5ccc6c(c5)ncn6C)c(F)c4)c3n2)CC1 [Compound I-11],–,–,25,1170,40,3,644,> 5000,47,339,–,–,–,–
"C=CC(=O)N1CCC[C@@H](n2nc(-c3ccc(Oc4ccccc4)cc3)c3c(N)ncnc32)C1 [ibrutinib, reference compound]",–,16,–,–,–,–,–,–,–,–,44,–,70,–
